We go through 19 compounds from patent US5523408A, “2-carbocyclic and 2-heterocyclic quinoline-4-carboxylic acids and salts thereof useful as immunosuppressive agents” (The Dupont Merck Pharmaceutical Company, priority 1994, dated 1996).

Structures are written as SMILES. Where a name gives a salt, the structure may show the parent alone. Read-outs that look alike come from different tables or passages of the source. A value given as a limit tells only on which side of the number the result lay.

Assay [1] deals with contact sensitivity response to 2,4-dinitrofluorobenzene (DNFB). Description: Assay of Contact Sensitivity Response to DNFB in Mice. The format is in vivo, Balb/c female mice. As to conditions: oral, 0.25% Methocel; ear swelling 24 hours after DNFB challenge. The text has this:
Contact sensitivity to 2,4-dinitrofluorobenzene (DNFB) has been extensively studied and characterized in the mouse to determine the regulatory mechanisms involved in cell mediated immune responses (Claman et al., Immunol. Rev. 50:105, 1980; Young and Young, "Cutaneous Models of Inflammation for the Evaluation of Topical and Systemic Pharmacological Agents" in Pharmacological Methods in the Control of Inflammation (Chang and Lewis, Eds.), Alan R. Liss, Inc., New York, pp. 215-231, 1989). This is an antigen-specific T-cell mediated inflammatory response that represents delayed-type hypersensitivity reactions seen in both humans and other mammals. This contact sensitivity animal model is used routinely in many laboratories for pharmacological screening of antiinflammatory agents.
The contact sensitivity model used for this study is an extensively used model system for delayed-type hypersensitivity reactions involving cell-mediated immune responses (T-cell mediated responses), which have been linked to the disease pathology associated with organ transplantation rejection, graft versus host disease, multiple sclerosis, myasthenia gravis, systemic lupus erythematosus, rheumatoid arthritis, and other chronic inflammatory diseases and autoimmune diseases for which the T-cell is pivotal to mounting an immune or autoimmune response.
Balb/c female mice (approximately 20 g, Charles River) were sensitized on the shaved abdomen with 25 uL of 0.5% 2,4-dinitrofluorobenzene (DNFB) (Eastman Kodak Co.) in a vehicle of 4:1 acetone: olive oil on days 0 and 1. Mice were ear challenged with 20 uL of 0.2% DNFB in a vehicle of 4:1 acetone: olive oil on day 5. An identical segment of the ear was measured immediately before challenge and 24 hours later with an engineer's micrometer. Ear swelling was expressed as the difference in ear thickness before and after challenge in units of 10-4 inches±SEM. Percent suppression was calculated as: [formula] Compounds (prepared in 0.25% Methocel®) were administered orally. Control animals received only vehicle (0.25% Methocel®). Negative controls were not sensitized on days 0 and 1 but were ear challenged on day 5. Ten mice are typically used per group.
Contact sensitivity results for representative compounds of the present invention are shown in Table B. In this table, + designates greater than 30% suppression of control ear swelling.

For assay [2], the system named is human mixed lymphocyte reaction. The assay can be described thus: Human Mixed Lymphocyte Reaction Test (MLR). The format is cell-based. To be noted: 144 h. The text has this:
The human mixed lymphocyte reaction is an in vitro immune response. Inhibition of the human mixed lymphocyte reaction immune response is a standard assay used in the field of immunology, which is considered to be indicative of in vivo immunosuppressive activity. […] The human mixed lymphocyte is also used as a model system for immune reactions involving T-cell-mediated immune responses. Such T-cell-mediated immune responses have been linked to the disease pathology associated with autoimmune diseases, chronic inflammatory diseases, graft versus host disease and organ transplantation rejection.
Blood was obtained by venipuncture from two non-related human donors. Peripheral blood mononuclear cells (PBMC) were isolated from these samples by using the Leuco Prep procedure (Becton-Dickinson). […] Cells from donor A (2×10^5) were incubated with cells from donor B (2×10^5) with or without compound in 96 well round bottom microtiter plates at 37° C., 5% CO2 for 6 days. Eighteen hours prior to harvesting cells from the plates, all wells were pulsed with 1 uCi of tritiated-thymidine. Cells from the plates were washed on day 6 and tritiated-thymidine incorporation was determined using a scintillation counter.

[3] abbreviates: human MLR, tritiated-thymidine incorporation, 6 days, read-out: IC50.

What is called IC50 is the concentration that inhibits the measured activity by half. On to `Cc1c(-c2cn(C)c3c(-c4ccccc4)cccc23)nc2ccc(F)cc2c1C(=O)[O-].[Na+]` [Ex. 75, 6-fluoro-3-methyl-2-(7-phenyl-1-methyl-3-indolyl)-quinoline-4-carboxylic acid, sodium salt], for which, in assay [1], the “Contact Sensitivity Activity (suppression of control ear swelling)” value (“Contact Sensitivity Activity” for short) was “+ (greater than 30% suppression of control ear swelling)”. Also, the IC50 in assay [2] (Homo sapiens) was 50 to 10000 nM.
`O=C(O)c1cc(N2CCc3c(-c4ccccc4)cccc32)nc2ccc(F)cc12` [Ex. 5, 6-fluoro-2-(4-phenyl-1-indolinyl)-quinoline-4-carboxylic acid, sodium salt] had an IC50 in assay [2] (Homo sapiens) below 50 nM.
As for `Cc1c(N2CCc3c(-c4ccccc4F)cccc32)nc2ccc(F)cc2c1C(=O)[O-].[Na+]` [Ex. 10, 6-fluoro-2-[4-(2-fluorophenyl)-1-indolinyl]-3-methylquinoline-4-carboxylic acid, sodium salt], the “Contact Sensitivity Activity” value in assay [1] was “+ (greater than 30% suppression of control ear swelling)”. This compound came in with a half-maximal inhibitory concentration (IC50) in assay [2] (Homo sapiens) below 50 nM.
As for `Cc1ccccc1-c1cccc2c1CCN2c1cc(C(=O)O)c2cc(F)ccc2n1` [Ex. 8, 6-fluoro-2-[4-(2-methylphenyl)-1-indolinyl]-quinoline-4-carboxylic acid, sodium salt], in assay [2] (Homo sapiens), the IC50 was below 50 nM.
As for `Cc1c(-n2cnc3c(-c4ccccc4)cc(F)cc32)nc2ccc(F)cc2c1C(=O)O` [Ex. 68, 6-fluoro-3-methyl-2-(6-fluoro-4-phenyl-1-benzimidazolyl)quinoline-4-carboxylic acid], the IC50 in assay [2] (setting [3]) was in the range of 50 to 10000 nM.
Compound `Cc1c(-c2cn(C)c3c(-c4ccccc4)cccc23)nc2ccc(C(F)(F)F)cc2c1C(=O)O` [Ex. 73, 3-methyl-2-(7-phenyl-1-methyl-3-indolyl)-6-trifluoromethylquinoline-4-carboxylic acid, sodium salt] showed an IC50 in assay [2] (Homo sapiens) below 50 nM.
For the compound `Cc1c(N2CCc3c(-c4ccccc4)cccc32)nc2ccccc2c1C(=O)O` [Ex. 4], the “Contact Sensitivity Activity” value in assay [1] is given as “+ (greater than 30% suppression of control ear swelling)”. In addition, the IC50 in assay [2] (setting [3]) fell in the range of 50 to 10000 nM.
Regarding `Cc1c(N2CCc3c(-c4cccc(C(F)(F)F)c4)cccc32)nc2ccc(F)cc2c1C(=O)[O-].[Na+]` [Ex. 12, 6-fluoro-3-methyl-2-[4-(3-trifluoromethylphenyl)-1-indolinyl]-quinoline-4-carboxylic acid, sodium salt], the “Contact Sensitivity Activity” value in assay [1] was “+ (greater than 30% suppression of control ear swelling)”. In assay [2] (Homo sapiens), the IC50 is below 50 nM.
In the same order, the values of `CN(Cc1cnc2nc(N)nc(N)c2n1)c1ccc(C(=O)N[C@@H](CCC(=O)O)C(=O)O)cc1` [methotrexate, reference compound] are “+ (greater than 30% suppression of control ear swelling)” and below 50 nM.
For the compound `O=C([O-])c1cc(N2CCc3c(-c4cccc(C(F)(F)F)c4)cccc32)nc2ccc(F)cc12.[Na+]` [Ex. 6, 6-fluoro-2-[4-(3-trifluoromethylphenyl)-1-indolinyl]-quinoline-4-carboxylicacid, sodium salt], the “Contact Sensitivity Activity” value in assay [1] was “+ (greater than 30% suppression of control ear swelling)”. This compound returned an IC50 in assay [2] (Homo sapiens) below 50 nM.
For the compound `Cc1ccccc1-c1cccc2c1CCN2c1nc2ccc(F)cc2c(C(=O)O)c1C` [Ex. 11, 6-fluoro-3-methyl-2-[4-(2-methylphenyl)-1-indolinyl]-quinoline-4-carboxylicacid, sodium salt], the IC50 in assay [2] (Homo sapiens) is below 50 nM.
With `Cc1c(-n2ccc3c(-c4ccccc4)cccc32)nc2ccc(F)cc2c1C(=O)[O-].[Na+]` [Ex. 47, 6-fluoro-3-methyl-2-(4-phenyl-1-indolyl)-quinoline-4-carboxylic acid, sodium salt], the “Contact Sensitivity Activity” value in assay [1] was “+ (greater than 30% suppression of control ear swelling)”.
`Cc1c(-n2ccc3c(-c4ccccc4)cccc32)nc2ccc(F)cc2c1C(=O)O` [Ex. 46]: the “Contact Sensitivity Activity” value in assay [1] was “+ (greater than 30% suppression of control ear swelling)”. Also, the IC50 in assay [2] (setting [3]) lay within 50 to 10000 nM.
In the case of `Cc1c(-c2cccc3c(-c4ccccc4)cccc23)nc2ccc(F)cc2c1C(=O)O` [Ex. 128, 6-fluoro-3-methyl-2-(5-phenyl-1-naphthyl) quinoline-4-carboxylic acid, sodium salt], the IC50 in assay [2] (setting [3]) was 50 to 10000 nM.
As for `Cc1c(N2CCc3c(-c4ccccc4)cccc32)nc2ccc(F)cc2c1C(=O)O` [Ex. 1, 6-fluoro-3-methyl-2-(4-phenyl-1-indolinyl)quinoline-4-carboxylic acid], the “Contact Sensitivity Activity” value in assay [1] is given as “+ (greater than 30% suppression of control ear swelling)”. In addition, the IC50 in assay [2] (setting [3]) was below 50 nM.
For `COc1cccc(-c2cccc3c2CCN3c2nc3ccc(F)cc3c(C(=O)O)c2C)c1` [Ex. 13, 6-fluoro-[4-(3-methoxyphenyl)-1-indolinyl]-3-methylquinoline-4-carboxylic acid, sodium salt], the IC50 in assay [2] (setting [3]) is below 50 nM.
In the case of `O=C(O)c1cc(N2CCc3c(-c4ccccc4F)cccc32)nc2ccc(F)cc12` [Ex. 7], the “Contact Sensitivity Activity” value in assay [1] was “+ (greater than 30% suppression of control ear swelling)”. Further, the concentration for half-maximal inhibition (IC50) in assay [2] (setting [3]) was below 50 nM.
For `Cc1c(N2CCc3c(-c4ccccc4)cccc32)nc2ccc(F)cc2c1C(=O)[O-].[Na+]` [Ex. 2, 6-fluoro-3-methyl-2-(4-phenyl-1-indolinyl)quinoline-4-carboxylic acid, sodium salt], the “Contact Sensitivity Activity” value in assay [1] is “+ (greater than 30% suppression of control ear swelling)”.
`COc1ccccc1-c1cccc2c1CCN2c1nc2ccc(F)cc2c(C(=O)O)c1C` [Ex. 9, 6-fluoro-[4-(2-methoxyphenyl)-1-indolinyl]-3-methylquinoline-4-carboxylic acid, sodium salt]: in assay [2] (setting [3]), the IC50 was below 50 nM.
